In the assay the test system is B16-F10 melanoma tumor. The assay can be described thus: Anti-tumor efficacy in mouse B16-F10 melanoma syngeneic tumor model. Type of assay: in vivo, C57Bl/6 mice. As to conditions: single agent treatment groups (navarixin 300 mg/kg bid + isotype control; anti-PD-1 10 mg/kg + vehicle); 12 mice per group; FIGS. 3 and 4. How it is done: The combination anti-tumor efficacy of a CXCR2 antagonist and anti-mouse PD-1 antibody muDX400 was assessed in the B16-F10 melanoma tumor model, syngeneic to the C57Bl/6 strain. This experiment compared the anti-tumor response of tumor-bearing mice to treatment with one of three regimens: monotherapy with a murine anti-mouse PD-1 monoclonal antibody (Anti-PD-1), monotherapy with a CXCR2 antagonist (navarixin) and combination therapy with these two agents administered concurrently.
Tumor-bearing mice for this study were initiated by implanting 0.4×10^6 log-phase and sub-confluent B16-F10 cells on the right lower dorsal flank of 7-8 week old female C57Bl/6 mice with an average body weight of 18 grams. When the mean tumor volume in these mice reached ˜70 cubic mm (50 mm^3-80 mm^3), the tumor-bearing mice were randomized to 5 treatment groups of 12 mice per group:
(1) Isotype Control+Vehicle;
(2) Isotype Control+Navarixin (bid);
(4) Anti-PD-1+Navarixin (bid) and;
(5) Anti-PD-1+Navarixin (qd).
The monoclonal antibody against murine PD-1 was of the isotype IgG1. The isotype control was a mouse monoclonal antibody specific for adenoviral hexon 25 and was of the isotype IgG1. […] The tumor volume was assessed using Vernier calipers.

Each structure is given as a SMILES string.

With `CC[C@@H](Nc1c(Nc2cccc(C(=O)N(C)C)c2O)c(=O)c1=O)c1ccc(C)o1` [navarixin, 2-hydroxy-N,N-dimethyl-3-{2-[[(R)-1-(5-methylfuran-2-yl)propyl]amino]-3,4-dioxocyclobut-1-enylamino}benzamide], the “complete and partial regressions” value was “not observed”.

The values above are taken from US11052065B2, “Compositions and methods for treating cancer with a combination of programmed death receptor (PD-1) antibodies and a CXCR2 antagonist” (Merck Sharp & Dohme Corp., priority 2017, dated 2021).
